# Experimental data reported in patent EP4745145A1, “SALT OF THIAZOLOPYRAZINE COMPOUND OR CRYSTAL THEREOF AND USE THEREOF” (Simcere Zaiming Pharmaceutical Co., Ltd., priority 2023, dated 2025).
# pIC50: −log10 of the molar value.
# Molecular target: T1, POLQ (Homo sapiens, UniProt O75417)
# T1 construct: the N-terminal active peptide segment of POLQ with ATPase activity (M1-N899) is co-incubated with the compound; purchased Pharmaron
# Test: POLQ enzyme activity inhibition experiment (ATPase, NADH-coupled)
# Type: biochemical
# Description: Brief introduction to experimental principle: After the N-terminal active peptide segment of POLQ with ATPase activity (M1-N899) is co-incubated with the compound, this peptide segment reacts with substrate dT50 under the action of ATP to generate ADP. The generated ADP then participates in the subsequent NADH oxidation-coupled enzymatic reaction, catalyzing the conversion of NADH to NAD^+. The reduction in the OD value of NADH at 340 nm was measured using the Envision microplate reader from Perkin Elmer to reflect enzyme activity.
# Experimental methods: The POLQ enzyme was diluted to 100 nM with a reaction buffer (20 mM Tris HCl (pH 7.80), 80 mM KCl, 10 mM MgCl2, 1 mM DTT, 0.01% w/v bovine serum albumin, 0.01% v/v Tween-20, 5% v/v glycerol). The test compound was diluted to different concentrations with dimethyl sulfoxide (DMSO) using the Echo 650 pipetting system and transferred to a 384-well plate, 20 µL/well of 100 nM POLQ was added, and the mixture was incubated at room temperature for 15 min. […] After the 384-well plate was reacted at room temperature for 20 min, the OD value at 340 nm was read using an Envision microplate reader.
# Inhibition rates were calculated and fitted using XLfit software to give the IC50 of the compound. […]
# T1 sequence (O75417 1-899): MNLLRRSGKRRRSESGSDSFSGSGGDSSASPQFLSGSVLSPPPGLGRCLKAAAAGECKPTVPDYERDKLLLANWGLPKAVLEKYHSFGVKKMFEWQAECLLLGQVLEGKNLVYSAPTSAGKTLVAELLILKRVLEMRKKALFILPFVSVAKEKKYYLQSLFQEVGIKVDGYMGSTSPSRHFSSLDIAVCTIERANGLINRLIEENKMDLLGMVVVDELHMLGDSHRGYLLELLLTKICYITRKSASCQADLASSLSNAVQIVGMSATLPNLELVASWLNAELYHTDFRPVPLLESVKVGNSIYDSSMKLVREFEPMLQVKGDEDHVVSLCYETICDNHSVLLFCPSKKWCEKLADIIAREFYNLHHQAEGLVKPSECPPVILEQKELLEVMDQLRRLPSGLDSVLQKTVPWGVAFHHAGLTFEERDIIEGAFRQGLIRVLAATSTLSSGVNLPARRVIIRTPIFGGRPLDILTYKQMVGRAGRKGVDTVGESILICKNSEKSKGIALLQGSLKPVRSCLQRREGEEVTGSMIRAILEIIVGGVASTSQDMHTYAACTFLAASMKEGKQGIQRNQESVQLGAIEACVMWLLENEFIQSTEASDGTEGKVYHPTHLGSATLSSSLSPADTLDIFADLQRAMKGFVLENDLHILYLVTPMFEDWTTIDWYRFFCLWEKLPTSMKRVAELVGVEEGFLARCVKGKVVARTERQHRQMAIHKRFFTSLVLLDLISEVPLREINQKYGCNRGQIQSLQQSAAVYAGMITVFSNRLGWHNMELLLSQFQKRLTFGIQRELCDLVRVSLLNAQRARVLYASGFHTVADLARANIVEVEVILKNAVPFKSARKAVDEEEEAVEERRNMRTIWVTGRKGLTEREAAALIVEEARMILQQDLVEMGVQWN
compound,measurement,value
"COc1ccc(Cl)cc1-c1cc(C)ncc1C(=O)Nc1nc2ncc(-c3ccc(C#N)cc3)nc2s1 [Compound of formula I, 4-(5-chloro-2-methoxyphenyl)-N-[6-(4-cyanophenyl)thiazolo[4,5-b]pyrazin-2-yl]-6-methylnicotinamide]",pIC50,> 7.00
